In patent US6291676A, “Water-soluble derivatives of camptothecin/homocamptothecin” (priority 2000, dated 2001):

How the values were obtained:
Assay type in all cases: physicochemical
[1] = Fluorescence anisotropy titration: association with electroneutral DMPC vesicles
Protocol: (§1) Vesicle Preparation. Small unilamellar vesicle (SUV) suspensions were prepared the day of an experiment by the method of Burke et al. (T. G. Burke, A. K. Mishra, M. C. Wani, and M. E. Wall, Lipid Bilayer Partitioning and Stability of Camptothecin Drugs, Biochem., 32(20), 5352 (1993)). Briefly, stock lipid suspensions containing 200 mg/mL lipid in phosphate buffered saline (PBS, pH 7.4) were prepared by Vortex mixing for 5-10 min above the TM of the lipid. The lipid dispersions were then sonicated using a bath-type sonicator (Laboratory Supplies Co., Hicksville, N.Y.) for 3-4 h until they became optically clear. […] Each type of vesicle suspension was annealed for 30 min at 37° C. and then used in an experiment.
(§2) Fluorescence Instrumentation. Steady-state fluorescence measurements were obtained on a SLM Model 9850 spectrofluorometer with a thermostated cuvette compartment. This instrument was interfaced with an IBM PS/2 model 55 SX computer. Excitation and emission spectra were recorded with an excitation resolution of 8 nm and an emission resolution of 4 nm. In all cases spectra were corrected for background fluorescence and scatter from unlabeled lipids or from solvents by subtraction of the spectrum of a blank. Steady-state fluorescence intensity measurements were made in the absence of polarizers. Steady-state anisotropy (a) measurements were determined with the instrument in the "T-format" for simultaneous measurement of two polarized intensities. […] The anisotropy was calculated from a =(IVV -GIVH)/(IVV +2GIVH), where G=IHV /IHH and the subscripts refer to vertical and horizontal orientations of the excitation and emission polarizers, respectively.
(§3) Anisotropy measurements for camptothecins were conducted using exciting light in the range of 370 nm to 400 nm and long pass filters on each emission channel in order to isolate the drug's fluorescence signal from background scatter and/or residual fluorescence. […] The combination of exciting light and emission filters allowed us to adequately separate fluorescence from background signal. […]

[2] = Fluorescence anisotropy titration: association with negatively-charged DMPG vesicles
Protocol: as §1, §2, §3

[3] = HPLC lactone stability in presence of DMPG SUV; conditions: for less lactone compared to the prior art monoamine (7AEC): DMPG
Protocol: To further study the differential interactions of CT-17 versus 7AEC with liposomal particles, high performance liquid chromatographic (HPLC) methods were employed to study drug stabilities in the absence and presence of membranes. In these experiments, small unilamellar vesicles (SUV) composed of dimyristoyl phosphatidylcholine (DMPC) were prepared by weighing out dry lipid powder (Avanti Polar Lipids) in a glass tube with screw cap top. The lipid was suspended in phosphate buffered saline, pH 7.4, at the concentration of 20 mg/ml and vortexed vigorously for 1 minute. The suspension was sonicated in a bath-type sonicator (Laboratory Supplies Co., Hicksville, N.Y.) for 2-4 hours until optically clear solution is obtained. […] A decrease in pH from 7.4 to 7.2 was observed. The pH of the SUV preparation was adjusted to 7.4 by the addition of 0.1 M potassium hydroxide. The sample was resonicated after pH adjustment until optically clear. Small unilamellar vesicles composed of dimyristoyl phosphatidylglycerol (DMPG) were also prepared by weighing out dry powder of the lipid (Avanti Polar Lipids) in a glass tube with screw-cap top and prepared as in the case of DMPC. The pH of the preparation decreased from 7.4 to 6.9 and was adjusted to 7.4 by the addition of 0.1 M KOH. The preparation was resonicated for 30 minutes until optically clear.
Stock solutions of 7-(1-Aminoethyl)camptothecin, a monoamine compound known in the prior art, and CT-17 as prepared in Example 18 were prepared by weighing out dry powder and dissolving in dimethylsulfoxide (DMSO) at a concentration of 2 mM. The SUV preparations from above were incubated at 37° C. in a water bath for 30 minutes. The two camptothecin drugs were added to the SUV preparations such that the final drug concentrations were 1 μM. The samples were incubated at 37° C. and aliquots were withdrawn at 1 hour and 3 hours and added to cold methanol (-20° C.) and immediately analyzed by reversed-phase HPLC using the conditions as follows. Analysis was performed using either Waters Alliance 2690 LC system equipped with temperature controlled autosampler or Waters LC system equipped with temperature controlled 717 plus Autosampler and 501 pumps. The detection was using either Waters 470 or 474 fluorescence detectors. Solvent A was 2% triethylammonium acetate, pH 5.5 and Solvent B was acetonitrile. The column used was Waters Symmetry C18, 5 μm (3.9×150 mm). The autosampler temperature was maintained at 4-5° C. The conditions used for analysis of 7-(1-Aminoethyl)camptothecin: Isocratic elution using 15% of solvent A and 85% of solvent B; detection using λcx =370 and λcm =440. […] The HPLC data was collected and analyzed using Waters Millenium chromatography manager.

CC[C@@]1(O)C(=O)OCc2c1cc1n(c2=O)Cc2c-1nc1ccccc1c2CNN1CCN(C)CC1 [CT-17, 7-[N-(4-methyl-1-piperazino)aminomethyl]-(20S)-camptothecin]
Overall association constant KDMPC ([1]; PBS buffer, pH 7.4, physiological temperature, DMPC): 30 M⁻¹
reduction in membrane binding relative to 7AEC (DMPC) ([1]; electroneutral DMPC membranes): greater than 2 fold
Overall association constant KDMPG ([2]; PBS buffer, pH 7.4, physiological temperature, DMPG): 800 M⁻¹
reduction in membrane binding relative to 7AEC (negatively-charged membranes) ([2]; negatively-charged DMPG membranes): three-fold
remaining at 1 h, 1 µM ([3]; DMPG SUV, PBS pH 7.4, 37° C, 1 hr, 1 μM drug, read-out: Percentage of Lactone, DMPG, 1 Hr): 87 ± 2%
remaining at 3 h, 1 µM ([3]; DMPG SUV, PBS pH 7.4, 37° C, 3 hr, 1 μM drug, read-out: Percentage of Lactone, DMPG, 3 Hr): 78 ± 3%
less lactone compared to the prior art monoamine (7AEC) ([3]; 1 hr): 6%
less lactone compared to the prior art monoamine (7AEC) ([3]; 3 hr): 8%
